According to US20170114128A1, “USE OF TGF-BETA ANTAGONISTS OF TREAT TYPE-2 DIABETES” (ALBERT EINSTEIN COLLEGE OF MEDICINE, INC., priority 2014, published 2017):

Tests used:
hypothalamic GT1-7 cells = experiment: IκBα mRNA levels in GT1-7 cells after TGF-β1 treatment; type: cell-based; settings: GT1-7 cells, TGF-β1 10 ng/ml
Description: (§1) TGF-β degrades IκBα mRNA to atypically activate NF-κB: RNA SGs/PBs have the function to degrade mRNAs by targeting the AU-rich element (AUE) at the 3′ untranslated region (UTR) (36-38). […] This information led to the suspicion that TGF-β could work to degrade IκBα mRNA. […] To test if TGF-β induced IκBα mRNA decay is accountable for the glucose metabolism disorder, an experiment was designed to study if the pro-diabetic effect of brain TGF-β excess could be reversed through directly increasing hypothalamic IκBα mRNA. Using an approach which was established previously (23), a lentiviral system was employed to deliver exogenous Iκbα mRNA into the mediobasal hypothalamus of chow-fed C57BL/6 mice, and indeed, this lentivirus-delivered Iκbα mRNA prevented TGF-β1 injection from activating hypothalamic NF-κB (FIG. 5f). Metabolic analysis confirmed that this treatment attenuated the effect of TGF-β1 from impairing insulin-dependent glucose control (FIG. 5g).
Cell culture. GT1-7 cells were cultured as described previously (14). Briefly, GT1-7 cells were maintained in Dulbecco's Modified Eagle's Medium (Invitrogen) with 10% fetal bovine serum (Hyclone) and penicillin/streptomycin (Invitrogen), at 37° C. in a humidified atmosphere containing 5% CO2. Cells were fasted in serum-free medium for an overnight period, and then were subjected to TGF-β1 treatment at the indicated dose and time course.

[1] = test system: hypothalamic RNA SGs/PBs genes, IκBα mRNA, Pomc mRNA; experiment: Hypothalamic mRNA levels and HuR immunostaining after third-ventricle TGF-β1; type: in vivo, mice
Description: POMC neurons direct the pro-T2D effect of TGF-β excess: It was subsequently studied if hypothalamic neurons are critical for the pro-diabetic effects of brain TGF-β excess. […] It was studied if POMC neurons could be crucial for the pro-diabetic effect of brain TGF-β excess. […] To carry out this study, a genetic mouse model was generated with Tgfbr2 knockout specifically in POMC neurons by crossing Tgfbr2lox/lox mice with POMC-Cre mice. As a result, compound offspring POMC-Tgfbr2lox/lox mice were obtained and littermate control Tgfbr2lox/lox mice. These mice were maintained on normal chow feeding or 3-week HFD feeding. […] Taken together, the action of TGF-β in POMC neurons is important for the pro-diabetic effect of brain TGF-β excess. POMC-Cre can target other types of neurons during the developmental stage (34), thus, the pro-diabetic mechanism of TGF-β may involve additional hypothalamic or brain neurons.
Induction of hypothalamic RNA SGs/PBs by TGF-β or HFD: In exploring how TGF-β could activate hypothalamic NF-κB without requiring pro-inflammatory kinase signaling, attention was directed to a possible role from mRNA regulation. In coping with inflammatory stress, eukaryotic cells can develop a process known as RNA stress response which is characterized by RNA stress granules (SGs) and processing bodies (PBs) (36-38). In this reaction, messenger ribonuclear protein (mRNP) byproducts exit from polysomes and form RNA SGs at discrete cytoplasmic foci. RNA SGs primarily consist of poly(A)+mRNAs-containing 48S pre-initiation complexes, small ribosomal subunits, mRNA decay factor tristetraprolin (TTP), translation initiation factors such as eukaryotic translation initiation factor-4E (eIF4E), eIF4G, eIF4A, eIF4B, poly(A)-binding protein (PABP), and RNA helicases (36-38). RNA stress response can lead to the export of mRNPs into the PBs, a complex which harbors an array of mRNA decay machineries that act to dispose mRNAs from SGs or polysomes (36-38). PBs contain nontranslating mRNAs, translation repressors, mRNA decay machineries (including 5′-3′ mRNA decay system, nonsense-mediated decay pathway, and RNA-induced silencing complex), and mRNA decay factors such as TTP, eIF4E, DEAD box RNA helicase family member p54/RCK, […] (CPEB), B-related factor 1/RNA polymerase III transcription initiation factor IIIB subunit (BRF1), eukaryotic translation initiation factor 4E transporter (4-ET), and RNA-binding protein Smaug (36-38). […] In line with these observations, we examined if the morphology of RNA SGs could be detected in the hypothalamus of these mice. […] Consistently, these morphological changes were found in the hypothalamus of HFD-fed mice but almost not chow-fed mice (supplementary FIG. 6b). […]

HEK 293 cells = experiment: IκBα mRNA levels in HEK 293 cells after TGF-β1 treatment; type: cell-based; settings: HEK 293 cells (data not shown)
Description: as §1

Myd88 knockout mice = experiment: Third-ventricle TGF-β1 delivery in Myd88 knockout mice; type: in vivo; settings: hypothalamic third ventricle; data not shown
Description: To further assess this point, it was asked if the effects of brain TGF-β excess could be impaired by ablation of a signaling component, such as toll-like receptor-4 (TLR4) or myeloid differentiation primary response gene 88 (MyD88), because they employ kinase signaling to induce IκBα phosphorylation and thus NF-κB activation. Using a genetic model, T1r4 knockout (T1r4−/−) mice, TGF-β1 or vehicle was delivered into the hypothalamic third ventricle of these mice and littermate WT mice via pre-implanted cannula. Vehicle-injected T1r4−/− mice and WT mice were both normal in glucose and insulin tolerance tests (FIG. 4a, b). […] Altogether, brain TGF-β excess may use a mechanism that directly targets IκBα rather than upstream kinase signaling to activate hypothalamic NF-κB.

TGF-β1: transforming growth factor-β1 (Sigma), cytokine dissolved in artificial cerebrospinal fluid for third-ventricle injection
IκBα mRNA levels (hypothalamic GT1-7 cells): notably decreased | HuR-containing aggregates in perinuclear regions of hypothalamic cells ([1]; HuR immunostaining): present | hypothalamic increases of RNA SGs/PBs genes ([1]; injection into the third ventricle of normal mice (4 ng), similar to 3-month HFD): similarly induced | hypothalamic IκBα mRNA levels ([1]; intra-third ventricle injection (4 ng)): sufficient to decrease | Pomc mRNA levels in the hypothalamus vs controls ([1]; mouse, in vivo): lower | IκBα mRNA levels (HEK 293 cells): notably decreased | effect of lack of Myd88 on glucose or insulin intolerance following TGF-β1 delivery (Myd88 knockout mice): did not lead to a significant reduction
